# Test results reported in article PMC8279492, “Quinolinonyl Non-Diketo Acid Derivatives as Inhibitors of HIV-1 Ribonuclease H and Polymerase Functions of Reverse Transcriptase” (Journal of Medicinal Chemistry, 2021).
# Read-outs that look alike come from different tables or passages of the source.
# How the values were obtained:
# HIV-1 IN = HIV-1 IN (Human immunodeficiency virus type 1 group M subtype B, UniProt P12497); assay: biochemical
# Method: His-tagged NL4-3 IN was expressed from a pET15b plasmid in the E. coli BL21 pLys strain. Recombinant protein was purified as previously described[67] following a batch preparation on Ni-NTA beads (Qiagen, Paris, France).
# Both oligonucleotides were purchased from Integrated DNA Technologies, Inc. (Coralville, IA), and the gel was purified in-house. ST reactions were performed by adding molecules or an equivalent volume of 100% dimethyl sulfoxide (DMSO, used as the drug solvent) to a mixture of 20 nM duplex DNA substrate and 400 nM IN in 50 mM MOPS pH 7.2, 7.5 mM MgCl2, and 14 mM 2-mercaptoethanol. Mixtures were incubated at 37 °C for 2 h, and the reaction was quenched by addition of an equal volume of loading buffer [formamide containing 1% sodium dodecyl sulfate (SDS), 0.25% bromophenol blue, and xylene cyanol]. […] Dried gels were visualized using a FLA5000 (Fuji Photo Film, Tokyo, Japan). Densitometric analyses were performed using ImageQuant 5.1 software from GE Healthcare.
# [1] = target: T1, HIV-1 RT-associated RNase H activity (Human immunodeficiency virus type 1 group M subtype B, UniProt P03366); assay: biochemical; format: biochemical
# T1 construct: His-tagged p66/p51 HIV-1 RT group M subtype B; His; made in house; host or cells: Escherichia coli M15
# Method: (11) and β-thujaplicinol (BTP) used as positive controls.
# (§1) His-tagged p66/p51 HIV-1 RT group M subtype B coded in a p6HRT-prot plasmid was expressed in the Escherichia coli strain M15.[65] Heterodimeric RTs were expressed essentially and purified as described.[66]
# The HIV-1 RT-associated RNase H activity was measured as described.[68] Briefly, the reaction was carried out in a black 96-well plate in a total volume of 100 μL. […] Experiments were performed in duplicate and replicated at least two times. Data were analyzed as described.[36]
# HIV-1 replication = HIV-1 replication in HeLa-CD4-LTR-β-gal reporter cells; format: cell-based; details: for EC50: Human immunodeficiency virus 1, HeLa-CD4-LTR-β-gal cells, 24 h post infection, read-out: antiviral activity EC50
# Method: (§2) HIV-1 replication was monitored using HeLa-CD4-LTR-β-gal reporter cells as previously described.[69] Briefly, β-galactosidase activity was monitored 24 h post infection using a replication-competent HIV produced in-house (H9-laï coculture) and a serial dilution of molecules or an equivalent volume of DMSO. In parallel, compounds’ toxicity was determined at 24 h in the same cell line using CellTiter 96 AQueous One Solution Cell Proliferation Assay (Promega, France).
# HIV-1 RT-RDDP activity = target: T2, HIV-1 RT-RDDP activity (Human immunodeficiency virus type 1 group M subtype B, UniProt P03366); assay: Polymerase assay (RNA-dependent DNA polymerase); format: biochemical
# T2 construct: His-tagged p66/p51 HIV-1 RT group M subtype B; His; made in house; host or cells: Escherichia coli M15
# Method: as §1
# The HIV-1 RT-associated RNA-dependent DNA polymerase activity was measured as described.[65] Briefly, the reaction was carried out in a black 96-well plate in a total volume of 25 μL. Serial dilutions of compounds were added to the reaction mix containing 60 mM Tris HCl buffer pH 8.1, 8 mM MgCl2, 60 mM KCl, 13 mM DTT, 2.5 mM poly(A)-oligo(dT), and […].
# [2] = Compounds' toxicity, CellTiter 96 AQueous One Solution Cell Proliferation Assay; format: cell-based; details: human, HeLa-CD4-LTR-β-gal cells
# Method: as §2
# IN = details: cited from earlier work
# RNase H = details: cited from earlier work
# [3] = anti-RH activity (IC50 ± SD), HIV-1 RT-associated RNase H activity, dose-response curves, no preincubation
# [4] = CC50 (cytotoxic concentration 50%), 24 h
SMILES,IC50 (HIV-1 IN) [µM],"IC50 [1, 3] [µM]",SI (selectivity index = CC50/EC50) (HIV-1 replication),EC50 (HIV-1 replication) [µM],IC50 (HIV-1 RT-RDDP activity) [µM],"CC50 at 24 h [2, 4] [µM]","CC50 at 24 h ([2]; supplement CSV, read-out: CC50) [µM]","IC50 ([1]; RH IC50 (uM), supplement CSV) [µM]","IC50 (IN; supplement CSV, earlier compounds 1 and 2, ref 29−33, read-out: IN ST IC50) [µM]",IC50 (RNase H) [µM],IC50 (IN; read-out: IN inhibitory activity IC50) [µM]
"O=C(O)c1cn(Cc2ccc(F)cc2)c2ccc(OCc3ccc(-c4ccccc4)cc3)cc2c1=O [4s, 6-([1,1′-Biphenyl]-4-ylmethoxy)-1-(4-fluorobenzyl)-4-oxo-1,4-dihydroquinoline-3-carboxylic Acid]",> 250,7.47 ± 1.55,>40,2.5 ± 1.03,11.6 ± 5.5,> 100,> 16,,,,
"CCOC(=O)c1cn(Cc2ccc(F)cc2)c2ccc(OCc3cccc(Cl)c3Cl)cc2c1=O [5m, Ethyl 6-((2,3-Dichlorobenzyl)oxy)-1-(4-fluorobenzyl)-4-oxo-1,4-dihydroquinoline-3-carboxylate]",0.05 ± 0.01,24,1.2,17.8 ± 2.3,1.88 ± 0.04,21.6 ± 2.8,23.9 ± 4.5,,,,
"O=C(O)c1cn(Cc2ccc(F)cc2)c2ccc(OCc3ccc(Cl)c(Cl)c3)cc2c1=O [4n, 6-((3,4-Dichlorobenzyl)oxy)-1-(4-fluorobenzyl)-4-oxo-1,4-dihydroquinoline-3-carboxylic Acid]",3.25 ± 0.85,29.5 ± 0.5,>12.4,16.1 ± 5.5,2 ± 0.8,> 200,> 50,29.5 ± 0.55,,,
CCOC(=O)/C(O)=C/C(=O)/C=C/c1cccn1Cc1ccc(F)cc1 [compound 1],,,,,,,,,90,,
"O=C(O)c1cn(Cc2ccc(F)cc2)c2ccc(OCc3ccc4c(c3)OCO4)cc2c1=O [4q, 6-(Benzo[d][1,3]dioxol-5-ylmethoxy)-1-(4-fluorobenzyl)-4-oxo-1,4-dihydroquinoline-3-carboxylic Acid]",> 100,13.5,>17.7,11.3 ± 3.5,5.1 ± 1.8,> 200,> 50,,,,
O=C(O)/C(O)=C/C(=O)c1cn(Cc2ccc(F)cc2)c2cc(N3CCCC3)ccc2c1=O [compound 2],,,,,,,,,,5.1,0.028
